Test results from patent US5169863A, “Hypersphyxia-causing methods” (K.K. Ueno Seiyaku Oyo Kenkyujo, priority 1988, dated 1992).
Read-outs that look alike come from different tables or passages of the source.

Columns and labels:
[1] = changing rate of blood pressure and heart rate by intravenous injection in anesthetized rats; format: in vivo, Wister male rats; conditions: Rattus norvegicus, 1 (mg/kg)
Description: (blood pressure, heart rate increasing action by intravenous injection) Wister male rats (8 weeks old) were used as test animals. The rats were applied to anesthesia by intraperitoneal administration with 1.25 g/kg of urethane. The blood pressure was determined by inserting a polyethylene tube into a femoral artery, which was connected with a pressure transducer. The heart rate was determined from R wave of electrocardiograms (ECG) induced by standard limb lead II with a tachometer. Each test compound was dissolved in ethanol and intravenously administered to rats in 1 mg/kg diluted with Ringer's solution just before use. The maximum concentration of ethanol was 2 percent. An ethanol-containing Ringer without any test compound was used as a control to confirm the influence of the ethanol in each experiment. Each changing rate (%) in the blood pressure and heart rate before and after administration was determined, and the average of 3-4 experiments was shown in Table 1. Changing rates of blood pressure and heart rate were determined in the same manner as described in Example 1 except that the test compounds 60, 61 and 62 were used in different concentrations instead of the test compounds 1-55.

acute toxicity LD50 = format: in vivo
[2] = progressing a breath (change rate of breath rate); format: in vivo, Wister male rats; conditions: Rattus norvegicus, iv, tail vein, rats
Description: Wister male rats (8 weeks old) were applied to anesthesia by intraperitoneal administration with 1.25 g/kg of urethane. A pick-up for breath was fixed on a top of a rat's nose, and the breath curve was recorded on a polygraph while the breath rate was counted with a tachometer.
Each test compound was dissolved in ethanol and administered to rats through a tale vein in 1 mg/kg as diluted with Ringer's solution just before use. The maximum concentration of ethanol was 2 percent. Ringers solution containing ethanol but not containing test compound was administered at every experiment as a control. The change rates (%) of the breath rate before and after administration were determined, and evaluated as progressing activity of breath.

[3] = recovery of blood pressure and heart rate of rats in hemorrhage shock; format: in vivo, Wister male rats; conditions: intravenous, dehematized rats
Description: (Recovery of blood pressure and heart rate of rats in hemorrhage shock)
Wister male rats (8 weeks old) were applied to anesthesia by subcutaneous injection with 1.5 g/kg of urethane. The blood pressure and heart rate were determined according to the same manner as in Example 1.
The rats were kept for 60 minutes in a room after a blood corresponding to 1.5% of the weight was removed.
13,14-dihydro-6,15-diketo-19-methyl-PGE1 ethyl ester (compound number 15) was dissolved in Ringer's solution (0.1 ml), and the solution was intravenously administered into the above dehematized rat. Ringer's solution was administered to a control group.
The recovery rates of the blood pressure and heart rate were obtained assuming the value at 60 minutes after dehematizing being 0% and the value before dehematizing being 100% respectively. In these FIGS. (1), (2) and (3) represent a dose of 1 mg/kg, dose of 0.5 mg/kg and control respectively.
The same procedure as the above except that the compounds of (7), (18) and (22) were used instead of the compound (15) was applied, and the effects are observed, the results of which are also shown in Table 3.

[4] = changes in blood flow rate in carotid, blood pressure and heart rate; format: in vivo, Wister male rats; conditions: 1 mg/kg, femoral artery, 4 experiments
Description: Wister male rats (9 weeks old) were used.
The rats were applied to anesthesia by intraperitoneal administration with 1.25 g/kg of urethane. The blood flow rate in carotid was determined by a stromuhr. The blood pressure and heart rate were determined according to the same manner as in Example 1.
13,14-dihydro-6,15-diketo-19-methyl-PGE1 ethyl ester (sample number: 15) was dissolved in a small amount of ethanol, and then diluted with Ringer's solution more than 50 times. About 0.1 ml (1 mg drag/kg rat) of the diluted solution was administered to a rat through a polyethylene tube inserted into a femoral artery. The changes in blood flow rate (BF), blood pressure (BP), heart rate (HR) were observed, and the average of 4 experiments were shown in FIG. 1.

[5] = Table 1, read-out: changing rate of blood pressure
[6] = Table 1, read-out: changing rate of heart rate
[7] = mouse, in vivo, IP, male mice, read-out: LD50
[8] = mouse, in vivo, IV, male mice, read-out: LD50
[9] = mouse, in vivo, PO, male mice, read-out: LD50

Row | Structure (SMILES) | change in vivo at 1 mg/kg [1, 5] [%] | change in vivo at 1 mg/kg [1, 6] [%] | LD50 (acute toxicity LD50; [7]) [mg/kg] | change in vivo at 1 mg/kg [2] [%] | recovering of blood pressure % ([3]; 0.5 mg/kg) [%] | recovering of heart rate % ([3]; 0.5 mg/kg) [%] | recovering of blood pressure % ([3]; 1.0 mg/kg) [%] | recovering of heart rate % ([3]; 1.0 mg/kg) [%] | change in blood flow rate (BF) in carotid ([4]; FIG. 1a) | change in blood pressure (BP) ([4]; FIG. 1b) | change in heart rate (HR) ([4]; FIG. 1c) | LD50 (acute toxicity LD50; [8]) [mg/kg] | LD50 (acute toxicity LD50; IP, female mice) [mg/kg] | LD50 (acute toxicity LD50; PO, female mice) [mg/kg] | LD50 (acute toxicity LD50; SC, female mice) [mg/kg] | LD50 (acute toxicity LD50; [9]) [mg/kg] | LD50 (acute toxicity LD50; mouse, in vivo, SC, male mice, read-out: LD50) [mg/kg]
1 | CCCCCC(=O)CC[C@H]1[C@H](O)CC(=O)[C@@H]1CCCCCCC(=O)OCC [Compound 2, 13,14-dihydro-15-keto-PGE1 ethyl ester] | 1 | 20 | > 1000 | 47 |  |  |  |  |  |  |  |  |  |  |  |  | 
2 | CCOC(=O)CCCCC(=O)C[C@H]1C(=O)C[C@@H](O)[C@@H]1CCC(=O)CCCC(C)C [Compound 15, 13,14-dihydro-6,15-diketo-19-methyl-PGE1 ethyl ester] | 12 | 19 |  | 26 | 39 | 62 | 68 | 100 | extremely increase | extremely increase | extremely increase | > 300 |  |  |  |  | 
3 | CCCCCC(=O)CC[C@H]1[C@H](O)CC(=O)[C@@H]1C/C=C\CCCC(=O)OC [Compound 21, 13,14-dihydro-15-keto-PGE2 methyl ester] | 18 | 35 |  | 29 |  |  |  |  |  |  |  | > 1000 |  |  |  |  | 
4 | CCCCCC(=O)CC[C@H]1[C@H](O)CC(=O)[C@@H]1C/C=C\CCCC(=O)OCC [Compound 22, 13,14-dihydro-15-keto-PGE2 ethyl ester] | 5 | 11 | > 500 | 28 | 32 | 50 | 74 | 63 |  |  |  |  | > 500 | > 4000 | > 1000 | > 4000 | > 1000
5 | CCCCC(F)C(=O)CC[C@H]1[C@H](O)CC(=O)[C@@H]1C/C=C\CCCC(=O)OC (some centres unmarked) [Compound 37, 13,14-dihydro-15-keto-16R,S-fluoro-PGE2 methyl ester] | 56 | 33 |  |  |  |  |  |  |  |  |  |  |  |  |  | > 500 | 
